Read-outs that look alike come from different tables or passages of the source. Non-standard residues stand in square brackets, D forms with d.
Tests used:
[1] = tested on: Salmonella typhimurium ATCC 14028, Escherichia coli O157:H7, Serratia marcescens ATCC 274, Yersinia enterocolitica O:9 E40 (pYV40), Pseudomonas cepacia ATCC …; assay: Minimal inhibitory concentration, modified broth microdilution; format: cell-based
Description: The present study examined the direct antimicrobial activity of BMAP-28 and RI-BMAP-28 against a series of bacterium which are of medical interest. […] This conclusion is also consistent with the maintained sequence and structure of the RI-BMAP-28. Antimicrobial activity, which is dependent upon non-chiral interactions with bacterial membranes, is anticipated to have the lowest structural requirements for maintenance of activity.
The bacterial strains used for this investigation were Salmonella typhimurium ATCC 14028, Escherichia coli O157:H7, Serratia marcescens ATCC 274, Yersinia enterocolitica O:9 E40 (pYV40), Pseudomonas cepacia ATCC 53795, and Salmonella enterititidis 27655R PT4.
The MIC of the peptides were measured using a modified broth microdilution method, Wu et al., Antimicrob. Agents Chemother. 43: 1274-1276, 1999, in LB medium, whereby the assay was performed in sterile 96-well, round-bottom polypropylene microtitre plates with an inoculum of 5×10^5 bacteria per mL. The plates were incubated at 37° C. for 12 h, solutions spotted onto LB-agar plates and the MIC was taken as the concentration at which no growth was observed.

[2] = target: T1, PhoQ (Salmonella typhimurium, UniProt P0DM80); assay: PhoPQ reporter assay (PhoN-PhoA fusion); format: cell-based, S. typhimurium strain CS 120; details: 5 μg/mL peptide, 5 mM magnesium
T1 construct: S. typhimurium strain CS 120, which expresses a PhoP-regulated fusion between Salmonella acid phosphatase (PhoN) and E. coli alkaline phosphatase (PhoA); endogenous in cells; host or cells: S. typhimurium strain CS 120
Protocol: S. typhimurium strain CS 120, which expresses a PhoP-regulated fusion between Salmonella acid phosphatase (PhoN) and E. coli alkaline phosphatase (PhoA), was utilized for the analysis of PhoPQ activation. The activity of this fusion protein was measured in media containing varying concentrations of the peptides and/or magnesium. For growth under PhoPQ activating conditions the growth media was supplemented with 50 μM MgCl2. Growth under PhoPQ-repressive conditions was performed in the presence of 5 mM MgCl2 as were all of the assays of peptide responses.
The ability of BMAP28 and RI-BMAP28 to initiate activation of a PhoPQ-dependent reporter was examined by incubation of bacterium in the presence of sub-lethal (5 μg/mL) concentrations of indicated peptide as well as 5 mM magnesium. Values reported represent the averages of three replicates. Activation and repression of PhoPQ by low (50 μM) and high (5 mM) magnesium respectively is also reported.
S. typhimurium strain CS 120, which expresses a PhoP-regulated fusion between Salmonella acid phosphatase (PhoN) and E. coli alkaline phosphatase (PhoA) was utilized for analysis of PhoPQ activation. The activity of this fusion protein was measured in salt-free LB media containing varying concentrations of the peptides and/or magnesium. For growth under PhoPQ activating conditions the growth media was supplemented with 50 μM MgCl2. […]

[3] = tested on: LPS-induced expression of BIRC3, CCL20, IL-8 and IL-10 in bovine monocytes; assay: HDP inhibition of LPS-induced gene expression (qRT-PCR); format: cell-based; details: 100 ng/ml LPS; for reduction of LPS-induced CCL20 expression / reduction of LPS-induced IL-8 expression / reduction of LPS-induced IL-10 expression: 0.5 μg/mL peptide; for suppression of the induction of LPS-induced genes: 5 μg/mL peptide, 4 hours
Description: The induction of inflammation responses by lipopolysaccharide (LPS) has clinical significance as a mechanism of sepsis and also serves as a biomarker for the ability of HDPs to mediate anti-endotoxic function. Our investigation focuses on patterns of expression of genes (BIRC3, CCL20, IL-8 and IL-10) identified through microarray analysis to show the most significant levels of differential expression in response to LPS-stimulation in monocytes, Mookherjee et al., J. Leokocyte. Biol. 80:1-12, 2006; Mookherjee et al., J. Immunol. 176: 2455-2464, 2006. […] Biol. 80:1-12, 2006; Mookherjee et al., J. Immunol. 176: 2455-2464, 2006.
The data presented represents the average of experiments performed in triplicate for a single animal. While all three animals, each tested in triplicate, gave the same trend of responses, the magnitude of these responses is unique for each animal. This is typical of the animal-to-animal variation in the magnitude of LPS-induced responses that has been observed by our group.
Monocytes were purified from isolated PBMCs by MACS® purification using CD14 microbeads (Miltenyi Biotec Inc., Auburn, Calif.). Monocytes were then plated at 5×10^6 cells/well in 6-well plates using Aim V medium (Gibco™, Invitrogen Corp., San Diego, Calif.) supplemented with 10% heat-inactivated fetal bovine serum (Gibco™) and rested for 19 hours before stimulation.
The ability of BMAP-28 and RI-BMAP-28 to modulate patterns of gene expression induced by endotoxin stimulation was determined in cultured monocytes. Cultured monocytes were stimulated with purified LPS (100 ng/ml) in the presence or absence of different concentrations of antimicrobial peptides for 4 hours. […] Biol. 80:1-12, 2006; Mookherjee et al., J. Immunol. 176: 2455-2464, 2006, and in vivo, Clapp et al., Am. J. Respir. Cri. Care Med. 150: 611-617, 1994. Cells were pelleted and stored at −81° C.
RNA was extracted from the bovine PBMCs with the RNeasy Mini Kit (Qiagen Inc., Ontario, Canada) and the RNase-free DNase (Qiagen Inc.) as per the manufacturer's protocols.
Quantitive real-time PCR (qRT-PCR) was performed using Invitrogen's SuperScript™ III Platinum® two step qRT-PCR kit with SYBR® Green (Invitrogen Corp., San Diego, Calif.) on the Bio-Rad (Hercules, Calif.) iCycler. Briefly, 250 ng total RNA, 8 μL 2×RT reaction mix, 2 μL RT enzyme, and DNase/RNase free water were added to a final volume of 20 μL. The mixture was incubated at 25° C. for 5 minutes, followed by 1 hour incubation at 50° C. and a final incubation of 15 min at 70° C. to produce the cDNA. The PCR reaction was carried out as per the manufacturer's instructions (Invitrogen Corp.) using a mix of Platinum® SYBR® Green qRT-PCR Super-Mix UDG, the template cDNA, […] of the primer mix, and DNase/RNase free water up to 15 μL total volume per well. Cycling conditions were carried out as indicated by the Invitrogen's SuperScript™ III Platinum® two-step qRT-PCR kit with SYBR® Green.

[4] = tested on: LPS-induced TNF-α secretion in bovine PBMCs; assay: HDP inhibition of LPS-induced TNF secretion (capture ELISA); format: cell-based; details: 100 ng/ml LPS, various peptide concentrations
Description: As patterns expression are not necessarily predictive of final biological responses we sought to confirm the immunomodulatory capabilities of RI-BMAP-28 through independent analysis. Specifically, the ability of the two isomers to influence secretion of the pro-inflammatory cytokine tumor necrosis factor alpha (TNF-α) following LPS stimulation was examined. Secretion of TNF-α is a well established biomarker of inflammation responses (52).
The secretion of TNF in culture supernatants was quantified with a capture ELISA. Inhibition of LPS-induced TNF secretion was evaluated by adding various concentrations of BMAP-28 (▴) or retro-inverso RI-BMAP-28 (▪) to duplicate PBMCs cultures. The data presented experiments performed in a single animal. While all three animals gave the same trend of responses, the magnitude of these responses is unique for each animal. […]
Untreated cells or cells treated with LPS for 24 h, in the presence or absence of the HDPs, were centrifuged at 1000×g for 5 min followed by 10,000×g for 10 min to obtain cell-free tissue culture supernatant samples. […] TNF-α secretion was monitored with a species-specific capture ELISA (37). […] The concentration of the cytokine was quantified by establishing a standard curve with serial dilutions of the recombinant human TNF-α (eBioscience, San Diego, Calif.) or bovine TNFα (Genetech Inc. San Francisco, Calif.).

[5] = tested on: bovine erythrocytes; assay: Cytotoxicity (hemolysis) assay; format: cell-based
Protocol: To determine the cytotoxicity of BMAP-28 and RI-BMAP-28 the peptides were incubated overnight at a range of concentrations in the presence of bovine erythrocytes. Consistent with what has been reported by others, BMAP-28 began to exert a cytotoxic effect at concentrations as low as 30 μg/mL. Complete hemolysis was observed by 200 μg/mL of BMAP-28. […] As toxicity currently represents a limiting factor to the systemic administration of HDPs this finding could be of particular significance.
Hemolysis was performed by incubating a 1% (v/v) suspension of bovine erythrocytes in phosphate buffered saline (pH 7.4) with a series of peptide concentrations for 12 hours at 37° C. Samples were then centrifuged and the supernatant absorbance read at 415 nm. Total hemolysis was obtained by resuspending in cells in water rather than PBS. Results are the average from four independent experiments.
Cytotoxicity assays were performed as based upon previously established protocols, Chen et al., Chem. Biol. Drug Des. 67: 162-173, 2006. Briefly, peptide samples were added to 1% bovine erythrocytes in phosphate-buffered saline and reactions were incubated at 37° C. for 18 h in microtiter plates. Appropriate dilutions of the peptides were made fresh prior to each MHC trial in HDP dilution buffer (0.2% BSA, 0.01% acetic acid) and added following addition of the erythrocytes in the appropriate microtiter plate well position. Hemolysis was determined by withdrawing aliquots from the assays, removing unlysed erythrocytes by centrifugation (800×g) and determining which peptide concentrations cause hemoglobin release. Hemoglobin release was determined spectrophotometrically at 570 nm. A sample of 1% erythrocytes with no added peptide served as a non-lysis control. As erythrocytes were incubated in an isotonic medium, no detectable release (<1% of that released upon complete hemolysis) of hemoglobin was observed from this control.

[6] = tested on: mice; details: cited from earlier work

T1 sequence (P0DM80 whole entry, the tested form may be a part): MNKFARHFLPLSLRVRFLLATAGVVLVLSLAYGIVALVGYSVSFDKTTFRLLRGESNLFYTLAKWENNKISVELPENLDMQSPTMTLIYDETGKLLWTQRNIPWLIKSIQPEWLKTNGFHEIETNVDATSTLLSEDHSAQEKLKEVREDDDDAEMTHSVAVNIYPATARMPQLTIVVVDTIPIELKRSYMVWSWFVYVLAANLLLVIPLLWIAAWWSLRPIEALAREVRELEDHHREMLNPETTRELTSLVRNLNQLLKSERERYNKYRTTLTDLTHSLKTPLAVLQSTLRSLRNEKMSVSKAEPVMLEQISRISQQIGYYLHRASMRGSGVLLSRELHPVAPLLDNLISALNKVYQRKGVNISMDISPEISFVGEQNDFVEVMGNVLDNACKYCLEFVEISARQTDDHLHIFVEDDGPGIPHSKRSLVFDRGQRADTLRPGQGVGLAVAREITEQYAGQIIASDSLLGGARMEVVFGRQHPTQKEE

| Substance | potency as direct antimicrobial agent versus natural isomer ([1]; against a spectrum of bacteria) | MIC values relative to that of the natural peptide ([1]; all strains tested, LB medium, 37° C., 12 h) | activation of PhoPQ-dependent reporter [2] | reduction of LPS-induced CCL20 expression [3] | reduction of LPS-induced IL-8 expression [3] | reduction of LPS-induced IL-10 expression [3] | suppression of the induction of LPS-induced genes [3] | inhibition of LPS-induced TNF-α secretion [4] | cytotoxic effects over the range of peptide concentrations examined ([5]; 1% bovine erythrocytes in PBS, overnight, 37° C.) | concentration at which a cytotoxic effect begins [5] | concentration giving complete hemolysis [5] | LD50 ([6]; administered intravenously) | LD50 ([6]; mice, i.p. administration) |
| --- | --- | --- | --- | --- | --- | --- | --- | --- | --- | --- | --- | --- | --- |
| D-amino acids of NH2-GIRIIPVIIPGYKKWARLIKRGLSRLG-COOH (H-G[dI][dR][dI][dI][dP][dV][dI][dI][dP]G[dY][dK][dK][dW][dA][dR][dL][dI][dK][dR]G[dL][dS][dR][dL]G-OH; also: retro-inverso) [RI-BMAP-28, retro-inversed form of BMAP-28] | 2-3 fold | half to a third | identical patterns of activation | two-fold reduction | four-fold | two-fold reduction | four to five-fold suppression | dose-dependent inhibition | did not exhibit any cytotoxic effects | – | – | – | – |
| NH2-GLRSLGRKILRAWKKYGPIIVPIIRIG-COOH (H-GLRSLGRKILRAWKKYGPIIVPIIRIG-OH) [BMAP-28, natural host defense peptide, a 27 amino acid proteolytic product of the antibacterial peptide BMAP-28 precursor protein] | – | – | identical patterns of activation | two-fold reduction | four-fold | two-fold reduction | four to five-fold suppression | dose-dependent inhibition | – | 30 µg/mL | ≤ 200 µg/mL | 15 mg/kg | approximately 40 mg/kg |

— US9102754B2, “Immunomodulatory compositions and methods for treating disease with modified host defense peptides” (priority 2007, dated 2015)
